The record followed here is patent publication US12285393B2, “Roles of modulators of intersectin-Cdc42 signaling in Alzheimer's disease” (priority 2017, dated 2025).

Molecules are shown by their SMILES. Peptide text beside a SMILES is read from it. * marks the point of attachment. Trt = c1ccc(C(c2ccccc2)(c2ccccc2)*)cc1; Cbz = O=C(OCc1ccccc1)*; NHNH2 = NN*

For the assay, the target named is Cdc42 (Homo sapiens, UniProt P60953). As to the kind of experiment: Cdc42-GEF-assay, additional compound screening. It is filed as biochemical. More on the design: purchased Cytoskeleton Inc. To be noted: for % ZCL367 (inhibitor activity): percentages of ZCL367 normalized to batch, less than 100% = more potent inhibitor; for % ZCL278 (with GEF): assay slope relative to ZCL278, normalized to batch; for % ZCL278 (without GEF): baseline slope relative to ZCL278, normalized to batch; for % ZCL278 (activator activity): percentages of ZCL278 activity normalized to batch, more than 100% = more potent activator, Table 9. How it is done:
Rho-GEF IC50 Assay: Rho-GEF assay (Cytoskeleton Inc., Denver, Colorado, United States of America) was conducted per manufacturer's instructions (λex=360 nm, λem=460 nm). Briefly, a solution (50 μL) of purified Rho GTPase (1 μM) and mant-GTP (1.5 μM) with or without compound (0.001-500 μM) was prepared and the absorbance monitored for 10-30 min to obtain the background/baseline. The addition of purified GEF/DH domain (0.08-0.2 μM) was carried out simultaneously and the absorbance was recorded for 30-45 min. The linear slope following the addition of the GEF was calculated and expressed as percentage of the control and plotted on an IC50 curve.
Cdc42 (1 μM) was incubated with mant-GTP (1.5 μM) and varying concentrations of ZCL278, ZCL279, or ZCL367 (5-500 μM). Fluorescent readings were taken every minute for 10 m to acquire the baseline. The GEF/DH domain (0.08-0.2 μM) was added followed by readings taken every minute for another 30 m. The linear phase was calculated from within the time period of 12-22 m. Cdc42 (1 μM) was incubated with mant-GTP (1.5 μM) and varying concentrations of ZCL278, ZCL279, or ZCL367 (5-500 μM). Fluorescent readings were taken every minute for 30 m to monitor the binding of mant-GTP in the absence of GEF/DH domain.
Cdc42-GEF-assays were conducted on additional screening compounds in batches of 9 compounds per batch as described above in Example 2 using ZCL278 and ZCL367 as standards. Screening compounds were taken from the Specs Chemistry Database of 197,000 compounds for small molecule or the National Cancer Institute Compound Library. […] These compounds promote Cdc42-mantGTP binding without GEF. It is possible that these compounds can inhibit Cdc42-mantGTP binding with GEF. […] These compounds appear to have activity like ZCL279. […] However, upon the addition of GEF, the compounds appear to facilitate the binding of mantGTP to Cdc42 (high assay slope, relative to ZCL278)

Chain of Cdc42 (P60953 whole entry): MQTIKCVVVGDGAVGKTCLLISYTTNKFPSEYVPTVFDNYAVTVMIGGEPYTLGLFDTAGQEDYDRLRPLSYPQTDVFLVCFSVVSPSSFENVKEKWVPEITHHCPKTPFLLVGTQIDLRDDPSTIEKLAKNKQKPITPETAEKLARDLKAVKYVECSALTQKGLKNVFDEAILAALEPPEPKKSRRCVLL

Consider `CC1(C)OCC(C2OC(O)C3OC(C)(C)OC32)O1` (stereo not shown) [NSC25268], for which the “% ZCL367 (inhibitor activity)” value turned out to be 64.92%. As for `OCN1CCC2N(CO)CCC3N(CO)CCC1N23` (stereo not shown) [NSC81461], the “% ZCL278 (with GEF)” value stood at 92.160% and the “% ZCL278 (without GEF)” value turned out to be 15.832%. In the same order, the values of `O=c1[nH]cc(C2OCC(O)C(O)C2O)c(=O)[nH]1` (stereo not shown) [NSC94024] are 96.844% and 34.327%. On to `Cc1cn(C2OC(C(O)C(N)=O)C(O)C2O)c(=O)[nH]c1=O` (stereo not shown) [NSC111600], for which the “% ZCL278 (with GEF)” value amounted to 185.829% and the “% ZCL278 (without GEF)” value is recorded as 9.098%. As for `NC1C=CN(C2OC(CO)C(O)C2O)C(=O)N1O` (stereo not shown) [NSC128731], the “% ZCL278 (activator activity)” value is reported as 108.28%. `NNC(=O)C(Cc1cnc[nH]1)NC(=O)CNC(=O)C(CSC(c1ccccc1)(c1ccccc1)c1ccccc1)NC(=O)OCc1ccccc1` (stereo not drawn) [NSC129911] (Cbz-Cys(Trt)-Gly-His-NHNH2; configuration not given here): the “% ZCL278 (with GEF)” value was 96.611% and the “% ZCL278 (without GEF)” value was 31.919%. Turning to `CC1(C)OC2COC(c3[nH]nc(C(N)=O)c3C(=O)N=[N+]=[N-])C2O1` (stereo not shown) [NSC136024], the “% ZCL278 (with GEF)” value came to 82.316% and the “% ZCL278 (without GEF)” value is given as 20.812%.

As to `NC(=O)c1[nH]nc(C2OC(CO)C(O)C2O)c1O` (stereo not shown) [NSC143095], the “% ZCL367 (inhibitor activity)” value was determined as 62.98%. With `NS(=O)(=O)c1ccc(NC2OCC(O)C(O)C2O)cc1` (stereo not shown) [NSC158437], the “% ZCL278 (with GEF)” value came to 127.593% and the “% ZCL278 (without GEF)” value turned out to be 12.229%. Consider `Cc1c2oc3c(C)ccc(C(=O)NC(C(N)=O)C(C)O)c3nc-2c(C(=O)NC(C(N)=O)C(C)O)c(N)c1=O` (stereo not shown) [NSC407188], for which the “% ZCL367 (inhibitor activity)” value is recorded as 70.58%.

Turning to `O=C(CCCN1C(=O)/C(=C2\SC(=S)N(CCCC(=O)Nc3ccccc3O)C2=O)SC1=S)Nc1ccccc1O` [ZCL1100], the “% ZCL367 (inhibitor activity)” value amounted to 29.97%.

Regarding `CCCCCn1c(O)c(C(=O)Nc2ccccc2S(N)(=O)=O)c(=O)c2ccccc21` [ZCL1105], the “% ZCL367 (inhibitor activity)” value worked out at 3.42%. Consider `O=C1C2C(C(=O)N1/N=C/c1c(O)ccc3ccccc13)[C@H]1C=CC2C12CC2` (stereo partly shown) [ZCL1107], for which the “% ZCL367 (inhibitor activity)” value was 62.37%.

For the compound `O=C1/C(=C/c2ccc(O)c(O)c2)SC(=S)N1Nc1ccccc1` [ZCL1109], the “% ZCL367 (inhibitor activity)” value is given as 55.74%. `O=C(CCCN1C(=O)/C(=C2\SC(=S)N(CCCC(=O)Nc3ccccc3O)C2=O)SC1=S)Nc1ccccc1O` [ZCL1110]: the “% ZCL367 (inhibitor activity)” value was 104.15%. On the same count and under the same terms, to `O=c1c2ccccc2nc(/C=C/c2c(O)ccc3ccccc23)n1-c1ccc(O)cc1` [ZCL1111] belongs 109.35%; to `OCCNC[C@H](O)Cn1c(-c2ccccc2)c(-c2ccccc2)c2ccc3ccccc3c21` [ZCL1115], 27.33%; to `O=C(CSCc1ccccc1)Nc1ccc(C(=O)O)cc1NC(=O)CSCc1ccccc1` [ZCL1117], 74.15%. In the case of `NC(=O)c1cc([N+](=O)[O-])ccc1NCCN1C(=O)C2C(C1=O)[C@H]1C=C[C@@H]2C1` (stereo partly shown) [ZCL1118], the “% ZCL367 (inhibitor activity)” value was determined as 46.77%. Turning to `O=C(CCN1C(=O)C2C(C1=O)[C@H]1C=C[C@@H]2C1)Nc1cccc2ccccc12` (stereo partly shown) [ZCL1119], the “% ZCL278 (with GEF)” value was determined as 103.291% and the “% ZCL278 (without GEF)” value came out at 59.173%. As to `C[C@H](Oc1cccc(Cl)c1)C(=O)Nc1ccccc1NC(=O)[C@H](C)Oc1cccc(Cl)c1` [ZCL1120], the “% ZCL367 (inhibitor activity)” value turned out to be 81.19%. For `CC(=O)Nc1ccc(Nc2nc(-c3ccc(O)cc3)cs2)cc1` [ZCL1124], the “% ZCL278 (with GEF)” value is given as 97.542% and the “% ZCL278 (without GEF)” value was 63.125%.

Regarding `NC(=O)c1ccsc1NC(=O)c1cc(-c2cccc(Br)c2)nc2ccc(Cl)cc12` [ZCL1125], the “% ZCL367 (inhibitor activity)” value worked out at 28.67%. As for `O=C(Nc1ccc(S(=O)(=O)Nc2cccc3ccccc23)cc1)Nc1cccc(Cl)c1` [ZCL1127], the “% ZCL367 (inhibitor activity)” value was 98.5%. In the case of `O=C(C(=O)N1CCC(O)(CO)CC1)c1c(-c2ccccc2)cc2ccccn12` [ZCL1137], the “% ZCL367 (inhibitor activity)” value worked out at 93.54%. Turning to `NC(=O)CCN(Cc1ccccc1)C(=O)Nc1cccc(OC2CCCC2)c1` [ZCL1139], the “% ZCL278 (activator activity)” value is recorded as 100.29% and the “% ZCL367 (inhibitor activity)” value came out at 88.55%. For the compound `O=C(c1ccccc1O)N1CCOc2c(O)cc(-c3nc4ccccc4s3)cc2C1` [ZCL1142], the “% ZCL278 (with GEF)” value is 98.499% and the “% ZCL278 (without GEF)” value amounted to 69.001%. For the compound `c1ccc(-c2nc3c(c(NCc4cn5ccsc5n4)n2)CCNC3)cc1` [ZCL1143], the “% ZCL278 (with GEF)” value amounted to 96.811% and the “% ZCL278 (without GEF)” value came out at 45.056%. In the case of `c1ccc(-c2nc3c(c(NCc4cn5ccsc5n4)n2)CCNC3)cc1` [ZCL1144], the “% ZCL278 (activator activity)” value came out at 454.3%.
